In DBAASP:
≈ marks a conversion by molar mass, not a printed value. Each block holds one molecule with its values, some of them ahead of it.

How the values were obtained:
Test in all cases: ≥ marks a high value that may be exact or a test limit, other limits are often not marked, values filed in µg/mL are converted to µM
[1] = tested on: Bacillus subtilis ICTA-07
[2] = tested on: Micrococcus luteus ATCC 4698
[3] = tested on: Pseudomonas aeruginosa ATCC 27853
[4] = tested on: Yersinia enterocolitica ATCC 9610
[5] = tested on: Enterococcus faecalis WHO 14
[6] = tested on: Acinetobacter calcoaceticus ATCC 2305-5
[7] = tested on: Klebsiella pneumoniae ATCC 10031
[8] = tested on: Bacillus subtilis KCTC 1021
Escherichia coli = tested on: Escherichia coli
Pseudomonas putida = tested on: Pseudomonas putida
Saccharomyces cerevisiae = tested on: Saccharomyces cerevisiae
Serratia marcescens = tested on: Serratia marcescens
[9] = tested on: Salmonella enterica subsp. enterica serovar Typhimurium ATCC 14028
[10] = tested on: Shigella dysenteriae ATCC 9752
Candida albicans = tested on: Candida albicans
[11] = tested on: Proteus mirabilis ATCC 25933
[12] = tested on: Pseudomonas aeruginosa ATCC 9027
[13] = tested on: Staphylococcus epidermidis ATCC 12228
[14] = tested on: Pseudomonas aeruginosa 4677
[15] = tested on: Escherichia coli ATCC 25922
[16] = tested on: Klebsiella pneumoniae 913
[17] = tested on: Enterobacter cloacae 6780
[18] = tested on: Klebsiella pneumoniae 1625
Acinetobacter baumannii = tested on: Acinetobacter baumannii
Escherichia coli 170 = tested on: Escherichia coli 170
Escherichia coli 4530 = tested on: Escherichia coli 4530
[19] = tested on: Enterobacter cloacae 2524

MIC [1]: 22 µM (≈ 152 µg/mL) | MIC [2]: ≥ 43 µM | MIC [3]: 77 µM (≈ 533 µg/mL) | MIC [4]: ≥ 49 µM | MIC [5]: ≥ 34 µM | MIC [6]: ≥ 43 µM
SMILES: CC[C@H](C)[C@@H]1NC(=O)[C@H](CCCCN)NC(=O)[C@H](C(C)C)NC(=O)[C@H](CC(N)=O)NC(=O)[C@H](CC(=O)O)NC(=O)[C@@H]2CCCN2C(=O)[C@H](CC(C)C)NC(=O)CNC(=O)[C@H](Cc2ccc(O)cc2)NC(=O)[C@@H]2CSSC[C@@H]3NC(=O)[C@H](CCC(=O)O)NC(=O)[C@H]([C@@H](C)O)NC(=O)[C@H](CC(N)=O)NC(=O)[C@@H]4CSSC[C@H](NC(=O)[C@H](C)NC(=O)[C@@H]5CCCN5C(=O)[C@H](Cc5c[nH]c6ccccc56)NC(=O)[C@H](C)NC(=O)[C@H](CSSC[C@H](NC(=O)[C@H](CO)NC(=O)[C@H](Cc5ccc(O)cc5)NC(=O)[C@H](CCCCN)NC(=O)[C@@H](NC(=O)CNC(=O)[C@H](CCCN=C(N)N)NC(=O)[C@H](Cc5cnc[nH]5)NC(=O)[C@H](CCC(=O)O)NC(=O)[C@@H](NC(=O)[C@@H](NC(=O)[C@H](Cc5ccc(O)cc5)NC(=O)CNC(=O)[C@H](CC(=O)O)NC(=O)[C@@H](N)CCCCN)[C@@H](C)CC)[C@@H](C)CC)CSSC[C@@H](C(N)=O)NC(=O)[C@H](CCCCN)NC(=O)[C@H](CC(C)C)NC(=O)[C@H](CC(N)=O)NC(=O)[C@H](CC(N)=O)NC(=O)[C@H](CO)NC(=O)[C@H](CC(=O)O)NC(=O)[C@H](Cc5ccccc5)NC1=O)C(=O)N[C@@H](Cc1ccccc1)C(=O)N[C@@H](Cc1ccccc1)C(=O)NCC(=O)N[C@@H]([C@@H](C)O)C(=O)N[C@@H](CC(N)=O)C(=O)N[C@@H](CO)C(=O)N[C@@H](Cc1c[nH]c5ccccc15)C(=O)N4)NC(=O)[C@H](Cc1ccc(O)cc1)NC(=O)CNC(=O)[C@H](CO)NC(=O)[C@H](CO)NC(=O)CNC(=O)[C@H](CCCCN)NC(=O)[C@H](CCCCN)NC(=O)[C@H](CC(C)C)NC(=O)[C@H]([C@@H](C)O)NC3=O)C(=O)N[C@@H](Cc1c[nH]c3ccccc13)C(=O)N2 [KDGYIIEHRGCKYSCFFGTNSWCNTECTLKKGSSGYCAWPACWCYGLPDNVKIFDSNNLKC]

MIC [7]: 28.9 µM (≈ 99.9 µg/mL) | MIC [8]: 14.4 µM (≈ 50 µg/mL) | MIC (Escherichia coli): 7.22 µM (≈ 25 µg/mL) | MIC (Pseudomonas putida): 14.4 µM (≈ 50 µg/mL) | MIC (Saccharomyces cerevisiae): ≥ 57.8 µM | MIC [2]: 1.44 µM (≈ 5 µg/mL) | MIC (Serratia marcescens): ≥ 57.8 µM | MIC [9]: > 57.8 µM | MIC [10]: 7.22 µM (≈ 25 µg/mL) | MIC (Candida albicans): > 57.8 µM | MIC [11]: ≥ 57.8 µM | MIC [12]: 14.4 µM (≈ 50 µg/mL) | MIC [13]: 14.4 µM (≈ 50 µg/mL)
SMILES: CC[C@H](C)[C@H](NC(=O)[C@H](CC(C)C)NC(=O)[C@H](CO)NC(=O)[C@H](Cc1ccccc1)NC(=O)[C@H](CC(C)C)NC(=O)[C@@H](N)CO)C(=O)N[C@@H](CCCCN)C(=O)N[C@@H](C)C(=O)NCC(=O)N[C@@H](C)C(=O)N[C@@H](CCCCN)C(=O)N[C@@H](Cc1ccccc1)C(=O)N[C@@H](CC(C)C)C(=O)NCC(=O)N[C@@H](CCCCN)C(=O)N[C@@H](CC(N)=O)C(=O)N[C@@H](CC(C)C)C(=O)N[C@@H](CC(C)C)C(=O)N[C@@H](CCCCN)C(=O)N[C@@H](CCC(N)=O)C(=O)NCC(=O)N[C@@H](C)C(=O)N[C@@H](CS)C(=O)N[C@@H](Cc1ccc(O)cc1)C(=O)N[C@@H](C)C(=O)N[C@@H](C)C(=O)N[C@H]1CSSC[C@@H](C(=O)O)NC(=O)[C@H](CCC(N)=O)NC(=O)[C@H](CCCCN)NC(=O)[C@H](CO)NC(=O)[C@H](C)NC(=O)[C@H](CCCCN)NC1=O [SLFSLIKAGAKFLGKNLLKQGACYAACKASKQC]

MIC [14]: ≥ 50 µM | MIC [15]: > 50 µM | MIC [16]: 25 µM (≈ 56 µg/mL) | MIC [17]: ≥ 50 µM | MIC [18]: ≥ 50 µM | MIC (Acinetobacter baumannii): 8.84 µM (≈ 19.8 µg/mL) | MIC (Escherichia coli 170): 12.5 µM (≈ 28 µg/mL) | MIC (Escherichia coli 4530): ≥ 50 µM | MIC [19]: 6.25 µM (≈ 14 µg/mL)
SMILES: CC[C@H](C)[C@H](N)C(=O)N[C@@H](C)C(=O)N[C@@H](CO)C(=O)N[C@@H](CCCCN)C(=O)N[C@H](C(=O)N[C@@H](C)C(=O)N[C@@H](CC(N)=O)C(=O)N[C@H](C(=O)N[C@H](C(=O)N[C@@H](CCC(N)=O)C(=O)N[C@@H](CCCCN)C(=O)N[C@@H](CC(C)C)C(=O)N[C@@H](CCCCN)C(=O)N[C@@H](CCCN=C(N)N)C(=O)N[C@@H](CCCCN)C(=O)N[C@@H](C)C(=O)N[C@@H](CCCCN)C(=O)N[C@@H](CC(N)=O)C(=O)N[C@@H](C)C(=O)N[C@H](C(=O)N[C@@H](C)C(=O)O)C(C)C)C(C)C)[C@@H](C)O)C(C)C [IASKVANTVQKLKRKAKNAVA]
